Experimental data taken from paper PMC6447718, “PACAP-38 and PACAP(6–38) Degranulate Rat Meningeal Mast Cells via the Orphan MrgB3-Receptor” (Frontiers in Cellular Neuroscience, 2019).
“Also recorded” adds a separate entry of the source. Like-named read-outs stand apart in the source and are kept apart here.

Tests used:
[1] = test system: rat peritoneal mast cells; conditions: ref Baun et al., 2012, cited from earlier work; for peritoneal mast cell degranulation (result in words): rat peritoneal mast cells
Description: Inspired by clinical findings, we have previously characterized the degranulating effect of various PACAP-analogues on isolated rat peritoneal mast cells. Based on the expectation that degranulation is mediated through the PAC1-receptor, we found an unpredicted order of potency (Baun et al., [2012]).

[2] = test system: MrgB3-receptor (RGD1560730); test: Two-electrode voltage clamp on MrgB3-receptor-expressing Xenopus laevis oocytes; type: cell-based, rat; conditions: for activation of MrgB3-receptor (result in words): 1–10 μM, holding potential −70 mV
Description: (§1) DNA of the coding region of Rattus Norvegicus Adcyap1r1 variant 5 (NM_001270582.1) encoding the null-splice variant (short N-terminal and neither exon 14 or 15) of the PAC1-receptor (Vector: EX-Rn10199-M03) was ordered from GeneCopoeia. DNA encoding the RGD1560730 gene (XM_006229262.3, GenScript), was cloned into the pXOOM vector as previously described (Jespersen et al., [2002]). DNA was purified using Plasmid DNA Purification NucleoBond Xtra Midi-kit (Macherey-Nagel). […] Extracted plasmids were linearized down-stream the poly(A) segment using the XhoI restriction enzyme (New England Biolabs, Ipswich, MA, USA). RNA was in vitro transcribed by synthetization from the T7 RNA polymerase promoter using the mMessenger mMachine kit (Ambion) according to manufacturer’s protocol. Messenger RNA was purified using the MEGAclear kit (Ambion). Transcribed RNA integrity was assessed by agarose gel electrophoresis.
(§2) Stage V and VI defolliculated Xenopus laevis oocytes were purchased from EcoCyte Bioscience (Dortmund, Germany) and kept in Kulori medium (90 mM NaCl, 4 mM KCl, 1 mM MgCl2, 1 mM CaCl2, and 5 mM Hepes, pH 7.4). Oocytes were micro-injected with 50 nl mRNA solution containing 30 ng RNA per oocyte and incubated at 19°C. Currents were measured after 2–5 days using a conventional two-electrode-voltage clamp (TEVC). The oocytes were placed in a 200 μl chamber and continuously exposed to a flow of Kulori medium with or without ligands (1 ml/min) while impaled with both a current and a voltage electrode filled with 3 M KCl and connected to an Oocyte Clamp Amplifier [Warner Instruments Corp. (OC-725 B) and a PC-interface (Digidata1440A, Molecular Devices)]. Current amplitude in absence or presence of ligands were analyzed using pClamp 10.2 software (Molecular Devices). All experiments were performed with oocyte membrane voltages constantly clamped to −70 mV and the temperature was kept between 19 and 22°C. In activation experiments, non-responding as well as low-responding (<10 nA) oocytes were excluded from the dataset. Ligands PACAP-38, PACAP-27, PACAP(6–38) were custom synthetized by Caslo (Lyngby, Denmark) while maxadilan was purchased from Bachem (Bubendorf, Switzerland).
(§3) Concentration-response curves for both oocytes and dural mast cells were analyzed for overall effects of PACAP-38 and -27 by two-way analyses of variance (ANOVA) followed by Sidak’s test for multiple pairwise comparisons. Effects of PAC1-receptor ligands on mast cell degranulation or on receptor-expressing oocytes were analyzed with a one-way ANOVA followed by Tukey’s multiple comparisons test. The effect of PACAP-38 and PACAP(6–38) on MrgB3-expressing oocytes were analyzed by an unpaired two-tailed t-test. Differences between groups were considered significant when p < 0.05 and data are presented as mean with standard error of the mean (±SEM). GraphPad Prism 7 (GraphPad Prism Software, San Diego, CA, USA) was used for statistical analysis.

[3] = test system: VPAC2-receptor; set-up: method as in Harmar et al., 2012; conditions: PACAP-38, PACAP-27 and VIP compared; ref Harmar et al., 2012; cited from earlier work
[4] = test system: VPAC1-receptor; set-up: method as in Harmar et al., 2012; conditions: PACAP-38, PACAP-27 and VIP compared; ref Harmar et al., 2012; cited from earlier work
[5] = test system: rat meningeal mast cells; test: Mast cell degranulation in hemi-skull preparations (dura mater, toluidine blue staining, microscopic count); type: cell-based, rat (male Sprague-Dawley); conditions: for degranulated meningeal mast cells in % of total number of mast cells: 30 s incubation, mean ± SEM; for mast cell degranulation: Figure 4A, PACAP-27 n = 6, maxadilan n = 5, mean ± SEM; for mast cell degranulation (result in words): 0.1 to 10 μM, rat meningeal mast cells
Experimental: Mast cell degranulation was performed as previously described (Pedersen et al., [2015]). In brief, skulls were cut mid-sagittal and the brain halves were removed, leaving the dura mater undisturbed. This was followed by immediate addition of either 350 μl 0.1, 1 or 10 μM PACAP-38 (custom synthesis by Caslo Laboratory ApS, Lyngby, Denmark) or vehicle (saline) in phosphate buffered saline (PBS). After 30 s incubation, the reactions were terminated, and the skulls were fixated in 4% paraformaldehyde in phosphate buffered saline (PBS; Glostrup Hospital Pharmacy, Denmark). The dura mater was dissected from the skull, whole mounted on slides, and mast cells were visualized by staining with 0.1% acidified toluidine blue (Sigma Aldrich, Germany). Tissues were dehydrated in graded alcohols prior to cover slip mounting. The level of mast cell degranulation was evaluated by 400× magnification (Nikon Eclipse Ni microscope) by a researcher blinded to the treatment and was counted in 10 consecutive fields along the stem part of the middle meningeal artery. Mast cells were considered degranulated if an extensive dispersion of more than 10 extruded granules were localized outside the cell or if an extensive loss of staining gave the cell a “ghostly” look.
as §3

[6] = test system: PAC1-receptor; conditions: presence of 21-amino acid domain in extracellular N-terminal domain (PAC1-full, short); ref Pantaloni et al., 1996; cited from earlier work
Description: Pituitary adenylate cyclase-activating peptide-38 (PACAP-38) is a 38-amino acid neuropeptide located in both sensory and parasympathetic perivascular nerve fibers (Moller et al., [1993]; Mulder et al., [1994]). A C-terminal truncated 27-amino acid (PACAP-27) version is endogenously present as well but is less abundant (Miyata et al., [1990]; Arimura et al., [1991]; Ogi et al., [1993]). […] At present, three PACAP-receptors have been identified: PA ... || Several different splice variants of the PAC1-receptor have been identified in rats. Splice sites in the extracellular N-terminal domain and the third intracellular loop account for fine tuning of ligand affinity and signal transduction through adenylate cyclase or PLC activation (Deutsch and Sun, [1992]; Spengler et al., [1993]).

[7] = test system: calcitonin gene-related peptide (CGRP) release from the trigeminal nucleus caudalis; conditions: ref Jansen-Olesen et al., 2014; cited from earlier work
Description: Future studies will have to rule out if MrgB3-receptors are involved in PACAP- ...

[8] = test system: un-injected oocytes; test: Two-electrode voltage clamp on un-injected Xenopus laevis oocytes (control); type: cell-based; conditions: for delayed long-lasting response in un-injected oocytes: 10 μM; for currents in un-injected oocytes (result in words): same concentrations as in receptor-expressing oocytes (0.1–3 μM; maxadilan up to 10 μM), data not shown
Experimental: as §2

[9] = test system: PAC1-receptor (Rattus Norvegicus Adcyap1r1 variant 5, null-splice variant); type: cell-based
Description: as §1, §2, §3

[10] = test system: migraine patients; conditions: ref Schytz et al., 2009, cited from earlier work
Description: Pituitary adenylate cyclase-activating peptide-38 (PACAP-38) is a 38-amino acid neuropeptide located in both sensory and parasympathetic perivascular nerve fibers (Moller et al., [1993]; Mulder et al., [1994]). A C-terminal truncated 27-amino acid (PACAP-27) version is endogenously present as well but is less abundant (Miyata et al., [1990]; Arimura et al., [1991]; Ogi et al., [1993]). […] Degranulation of mast cells can be induced either by an allergen-IgE-dependent mechanism or via an IgE-independent mechanism. The latter mechanism can be activated by a group of molecules known as basic secretagogues.

[11] = 10.0 μM, n = 6, **** p < 0.0001 for PACAP-38 (two-way ANOVA, Sidak's test)

| Compound | effect of inhibitor on PACAP-38-induced degranulation (result in words) [1] | activation of MrgB3-receptor (result in words) [2] | profile on VPAC2-receptor (result in words) [3] | profile on VPAC1-receptor (result in words) [4] | degranulated meningeal mast cells in % of total number of mast cells ([5]; 0.1 μM, n = 5) | degranulated meningeal mast cells in % of total number of mast cells ([5]; 1.0 μM, n = 6) | degranulated meningeal mast cells in % of total number of mast cells [5, 11] | mast cell degranulation ([5]; 10 μM, 30 s) | mast cell degranulation (result in words) ([5]; 30 s) | effect of 21-amino acid N-terminal domain of PAC1 on binding (result in words) [6] | release of CGRP from the trigeminal nucleus caudalis (result in words) [7] | delayed long-lasting response in un-injected oocytes [8] | currents in un-injected oocytes (result in words) [8] | activation of PAC1-receptor / relative potency (result in words) [9] | peritoneal mast cell degranulation (result in words) [1] | current ([2]; up to 10 μM, −70 mV, Figure 4C, n = 9, mean ± SEM) | activation of PAC1-receptor / relative potency (result in words) ([9]; 0.01 to 1 μM, holding potential −70 mV) | increase in mast cell degranulation ([5]; 10 μM, 30 s, p < 0.0001) | migraine attacks / headache after infusion (result in words) ([10]; PACAP-38: 20-min intravenous infusion) | adverse events after infusion (result in words) ([10]; infusion, terminated by antihistamine treatment) |
| --- | --- | --- | --- | --- | --- | --- | --- | --- | --- | --- | --- | --- | --- | --- | --- | --- | --- | --- | --- | --- |
| Nc1ncnc2c1ncn2C1CCCO1 (stereo not drawn) [SQ22536] | ineffective | – | – | – | – | – | – | – | – | – | – | – | – | – | – | – | – | – | – | – |
| COc1ccc2c(c1)CC[C@@H]1[C@@H]2CC[C@]2(C)[C@@H](NCCCCCCN3C(=O)C=CC3=O)CC[C@@H]12 [U-73122] | impaired | – | – | – | – | – | – | – | – | – | – | – | – | – | – | – | – | – | – | – |
| Pituitary Adenylate Cyclase Activating Peptide-27 [PACAP-27] | – | not significantly different from baseline; also recorded: no change; also recorded: not PACAP-27 and maxadilan induces currents | equipotent | equipotent | 7.1 ± 3.2 % degranulation | 16.9 ± 5.5 % degranulation | 12.1 ± 3.8 % degranulation | 12 ± 4% | did not induce mast cell degranulation that was significantly different from saline treatment; also recorded: unresponsive | impairs PACAP-27 binding | neither VIP, PACAP-27 nor maxadilan, mediated the release | not PACAP-27 | Currents were not observed | equipotent; also recorded: significant increase in membrane current; also recorded: activates the PAC1-receptor with apparently equal potencies | not PACAP-27 and VIP, caused degranulation; also recorded: weak degranulating effect | – | – | – | – | – |
| maxadilan | – | does not activate MrgB3-receptors; also recorded: no change; also recorded: not PACAP-27 and maxadilan induces currents | – | – | – | – | – | 5 ± 2% | unresponsive | – | neither VIP, PACAP-27 nor maxadilan, mediated the release | – | Currents were not observed | – | no effect on mast cell degranulation; also recorded: ineffective | −0.03 ± 0 μA | activates the PAC1-receptor with apparently equal potencies; also recorded: equipotent | – | – | – |
| pituitary adenylate cyclase activating peptide-38 [PACAP-38] | – | only PACAP-38 induces a significant change in current; also recorded: rapid concentration-depended inward current; also recorded: caused a change in current; also recorded: induces currents | equipotent | equipotent | 12.4 ± 3.8 % degranulation | 17.9 ± 3.7 % degranulation | 48.4 ± 6.2**** % degranulation | – | more potent mast cell degranulating agent than Pituitary Adenylate Cyclase Activating Peptide-27 (PACAP-27) in the meninges; also recorded: significant mast cell degranulation only was observed after stimulation with PACAP-38; also recorded: strong degranulation of meningeal mast cells | – | mediated the release | 15 out of 19 | Currents were not observed | equipotent; also recorded: significant increase in membrane current; also recorded: activates the PAC1-receptor with apparently equal potencies | caused degranulation; also recorded: strong degranulation effect; also recorded: almost total mast cell degranulation within the first 10–20 s after application | – | – | eight-fold increase | provokes migraine attacks in migraine patients as well as headache in non-migraineurs | all participants in the clinical provocation studies experienced long-lasting flushing; also recorded: heat sensation and long-lasting flushing |
